Data taken from patent US9364488B2, “Myelin regeneration with androgens” (priority 2011, dated 2016).
“Also recorded” adds a separate entry of the source.

What was measured:
[1] = tested on: corpus callosum axons of cuprizone-intoxicated mice; assay: Remyelination of corpus callosum after demyelination induced by cuprizone intoxication; type: in vivo; details: for remyelination of corpus callosum (myelin basic protein staining, oligodendrocytes): 6 weeks of treatment with subcutaneous silastic implants after 12 weeks of cuprizone intoxication; for promyelinating effect in vivo after demyelination induced by cuprizone intoxication (summary statement): male and female animals; for remyelinating effect in testicular feminized mice: mice devoid of functional androgen receptors due to a gene mutation
Description: In Figures b, d and f, are shown representative images of immunostaining of mouse corpus callosum with anti-MBP antibody.

[2] = tested on: activated microglial cells in corpus callosum; assay: Microglial responses and astrogliosis after cuprizone intoxication; details: 9 weeks of treatment after 12 weeks of cuprizone intoxication, castrated males
[3] = tested on: organotypic cultures of cerebellar slices
[4] = tested on: oligodendrocyte progenitors; assay: Proliferation and maturation of oligodendrocyte progenitors
[5] = MENT level in plasma of castrated male mice with subcutaneous silastic implants (radioimmunoassay); type: in vivo; details: mean of 8 samples, SD 0.87
Description: In additional experiments, the level of MENT which was induced in the plasma of castrated male mice based on subcutaneous silastic implants, as determined by radioimmunoassay, and which included a myelin response, was as follows: […]

[6] = target: estrogen receptor beta (ERβ) (Homo sapiens, UniProt Q92731); details: reference 16; cited from earlier work
Sequence of estrogen receptor beta (ERβ) (Q92731 whole entry, species assumed): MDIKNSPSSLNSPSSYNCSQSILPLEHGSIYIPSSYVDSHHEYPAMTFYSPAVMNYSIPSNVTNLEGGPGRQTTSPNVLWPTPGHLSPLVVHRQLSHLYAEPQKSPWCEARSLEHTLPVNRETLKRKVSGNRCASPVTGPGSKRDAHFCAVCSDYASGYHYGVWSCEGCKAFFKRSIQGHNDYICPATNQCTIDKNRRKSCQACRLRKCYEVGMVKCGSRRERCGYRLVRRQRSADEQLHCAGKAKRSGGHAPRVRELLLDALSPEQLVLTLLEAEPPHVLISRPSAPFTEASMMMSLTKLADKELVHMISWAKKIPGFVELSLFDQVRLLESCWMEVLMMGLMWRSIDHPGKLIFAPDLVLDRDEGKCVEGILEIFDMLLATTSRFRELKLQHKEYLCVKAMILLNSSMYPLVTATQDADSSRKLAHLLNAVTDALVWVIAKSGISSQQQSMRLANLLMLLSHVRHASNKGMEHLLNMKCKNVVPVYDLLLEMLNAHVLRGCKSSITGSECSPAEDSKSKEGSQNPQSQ

[7] = mouse, in vivo, sc

C[C@]12CCC(=O)C[C@@H]1CC[C@@H]1[C@@H]2CC[C@]2(C)[C@@H](O)CC[C@@H]12 [5α-dihydrotestosterone]
remyelination of corpus callosum (myelin basic protein staining, oligodendrocytes) [1]: promotion of remyelination
promyelinating effect in vivo after demyelination induced by cuprizone intoxication (summary statement) [1]: mimicked by 5α-dihydrotestosterone

C[C@]12CC[C@H]3[C@@H](CCC4=CC(=O)CC[C@@]43C)[C@@H]1CC[C@@H]2O [Testosterone, testosterone]
number of activated microglial cells [2]: return to normal levels; also recorded: significantly decreased
promyelinating effect in vitro [3]: very strong promyelinating effect
proliferation and maturation of oligodendrocyte progenitors [4]: promotes the proliferation and maturation
remyelination of corpus callosum (myelin basic protein staining, oligodendrocytes) [1]: Strong remyelination
remyelinating effect in aromatase knockout mice ([1]; aromatase knockout mice, cuprizone model): loses its efficiency; also recorded: strongly reduced; also recorded: diminished
promyelinating effect in vivo after demyelination induced by cuprizone intoxication (summary statement) [1]: very strong promyelinating effect
remyelinating effect in testicular feminized mice [1]: not observed
remyelinating effect in testicular feminized mice ([1]; listed as testosterone): eliminated
replenishment of corpus callosum fibers by oligodendrocytes ([1]; silastic implants for 3 to 6 weeks after termination of 12 week cuprizone diet): replenished by oligodendrocytes forming new myelin sheaths

C[C@@H]1CC2=CC(=O)CC[C@@H]2[C@H]2CC[C@]3(C)[C@@H](O)CC[C@H]3[C@@H]21 [MENT]
remyelination after lysolecithin-induced demyelination (mouse spinal cord): can be mimicked by MENT
mean MENT plasma level [5]: 2.12 ng/mL
remyelination of corpus callosum (myelin basic protein staining, oligodendrocytes) [1]: promotion of remyelination
promyelinating effect in vivo after demyelination induced by cuprizone intoxication (summary statement) [1]: also observed

C[C@]12CC[C@H](O)C[C@@H]1CC[C@@H]1[C@@H]2CC[C@]2(C)[C@@H](O)CC[C@@H]12 [3βAdiol, 5α-androstane-3β,17β-diol]
binding to estrogen receptor beta (ERβ) [6]: strongly binds

C[C@]12CC[C@@H]3c4ccc(O)cc4CC[C@H]3[C@@H]1CC[C@@H]2O [Estradiol, estradiol]
Brain Level ([7]; male): 0.36 ± 0.04 ng/g
PLASMA LEVEL ([7]; male): 0.39 ± 0.07 ng/mL
levels produced in plasma and brain tissue by the implants [7]: high physiological levels
